Results as given in ChEMBL document CHEMBL4028802, “DILIrank: the largest reference drug list ranked by the risk for developing drug-induced liver injury in humans” (Drug Discov Today, 2016).

Key:
Homo sapiens [1] = organism: Homo sapiens; assay: Liver toxicity in human assessed as induction of drug-induced liver injury by measuring verified drug-induced liver injury concern status
Homo sapiens [2] = organism: Homo sapiens; assay: Liver toxicity in human assessed as induction of drug-induced liver injury by measuring severity class index
Wherever DILI severity class is given: key of the grades not given here.

SMILES	DILI_Concern (Homo sapiens [1])	DILI_severity_class (Homo sapiens [2])
C#CCN(C)[C@H](C)Cc1ccccc1 [SELEGILINE]	No-Dili-Concern	0
CN[C@H]1CC[C@@H](c2ccc(Cl)c(Cl)c2)c2ccccc21 [SERTRALINE]	Less-Dili-Concern	3
CC(C)CC(N(C)C)C1(c2ccc(Cl)cc2)CCC1 (stereo unspecified) [SIBUTRAMINE]	Less-Dili-Concern	4
C[C@H](Cc1cc2c(c(C(N)=O)c1)N(CCCO)CC2)NCCOc1ccccc1OCC(F)(F)F [SILODOSIN]	Ambiguous-Dili-Concern	3
CSCC[C@H](NC(=O)[C@H](Cc1ccc(OS(=O)(=O)O)cc1)NC(=O)[C@@H](N)CC(=O)O)C(=O)NCC(=O)N[C@@H](Cc1c[nH]c2ccccc12)C(=O)N[C@@H](CCSC)C(=O)N[C@@H](CC(=O)O)C(=O)N[C@@H](Cc1ccccc1)C(N)=O [SINCALIDE]	No-Dili-Concern	0
CO[C@H]1C[C@@H]2CC[C@@H](C)[C@@](O)(O2)C(=O)C(=O)N2CCCC[C@H]2C(=O)O[C@H]([C@H](C)C[C@@H]2CC[C@@H](O)[C@H](OC)C2)CC(=O)[C@H](C)/C=C(\C)[C@@H](O)[C@@H](OC)C(=O)[C@H](C)C[C@H](C)/C=C/C=C/C=C/1C [SIROLIMUS]	Less-Dili-Concern	8
N[C@@H](CC(=O)N1CCn2c(nnc2C(F)(F)F)C1)Cc1cc(F)c(F)cc1F [SITAGLIPTIN]	Less-Dili-Concern	4
Cc1cc2c(cc1CC(=O)c1sccc1S(=O)(=O)Nc1onc(C)c1Cl)OCO2 [SITAXENTAN]	Most-Dili-Concern	8
O=C([O-])O.[Na+] [SODIUM BICARBONATE]	No-Dili-Concern	0
CC(O)C(=O)[O-].[Na+] (stereo unspecified) [SODIUM LACTATE]	No-Dili-Concern	0
O=C(O[C@H]1CN2CCC1CC2)N1CCc2ccccc2[C@@H]1c1ccccc1 [SOLIFENACIN]	Ambiguous-Dili-Concern	3
CNC(=O)c1cc(Oc2ccc(NC(=O)Nc3ccc(Cl)c(C(F)(F)F)c3)cc2)ccn1 [SORAFENIB]	Most-Dili-Concern	8
OC[C@@H](O)[C@@H](O)[C@H](O)[C@@H](O)CO [SORBITOL]	No-Dili-Concern	0
CC(C)NCC(O)c1ccc(NS(C)(=O)=O)cc1 (stereo unspecified) [SOTALOL]	Ambiguous-Dili-Concern	3
CN[C@@H]1[C@H](O)[C@H](NC)[C@H]2O[C@@]3(O)C(=O)C[C@@H](C)O[C@H]3O[C@@H]2[C@H]1O [SPECTINOMYCIN]	Ambiguous-Dili-Concern	3
CC(=O)S[C@@H]1CC2=CC(=O)CC[C@]2(C)[C@H]2CC[C@@]3(C)[C@@H](CC[C@@]34CCC(=O)O4)[C@H]12 [SPIRONOLACTONE]	Less-Dili-Concern	2
Cc1cn([C@H]2C=C[C@@H](CO)O2)c(=O)[nH]c1=O [STAVUDINE]	Most-Dili-Concern	8
[H]/N=C(/N)N[C@H]1[C@H](O)[C@@H](O)[C@H](O[C@@H]2O[C@@H](C)[C@](O)(C=O)[C@H]2O[C@@H]2O[C@@H](CO)[C@H](O)[C@@H](O)[C@@H]2NC)[C@@H](N/C(N)=N\[H])[C@@H]1O [STREPTOMYCIN]	No-Dili-Concern	0
CN(N=O)C(=O)N[C@@H](C=O)[C@@H](O)[C@H](O)[C@H](O)CO [STREPTOZOCIN]	Ambiguous-Dili-Concern	3
NC(=O)NS(=O)(=O)c1ccc(N)cc1 [SULFACARBAMIDE]	Most-Dili-Concern	8
Nc1ccc(S(=O)(=O)Nc2ncccn2)cc1 [SULFADIAZINE]	Less-Dili-Concern	3
Cc1nnc(NS(=O)(=O)c2ccc(N)cc2)s1 [SULFAMETHIZOLE]	Less-Dili-Concern	0

SMILES	DILI_Concern (Homo sapiens [1])	DILI_severity_class (Homo sapiens [2])
O=C(O)c1cc(/N=N/c2ccc(S(=O)(=O)Nc3ccccn3)cc2)ccc1O [SULFASALAZINE]	Most-Dili-Concern	5
Nc1ccc(S(=O)(=O)Nc2nccs2)cc1 [SULFATHIAZOLE]	Most-Dili-Concern	8
CCCCCCCCNC(C)C(O)c1ccc(SC(C)C)cc1 (stereo unspecified) [SULOCTIDIL]	Most-Dili-Concern	8
CCN(CC)CCNC(=O)c1c(C)[nH]c(/C=C2\C(=O)Nc3ccc(F)cc32)c1C [SUNITINIB]	Most-Dili-Concern	8
C[N+](C)(C)CCOC(=O)CCC(=O)OCC[N+](C)(C)C [SUXAMETHONIUM]	No-Dili-Concern	0
C=CC[C@@H]1/C=C(\C)C[C@H](C)C[C@H](OC)[C@H]2O[C@@](O)(C(=O)C(=O)N3CCCC[C@H]3C(=O)O[C@H](/C(C)=C/[C@@H]3CC[C@@H](O)[C@H](OC)C3)[C@H](C)[C@@H](O)CC1=O)[C@H](C)C[C@@H]2OC [TACROLIMUS ANHYDROUS]	Less-Dili-Concern	5
CCOc1ccccc1OCCN[C@H](C)Cc1ccc(OC)c(S(N)(=O)=O)c1 [TAMSULOSIN]	Less-Dili-Concern	0
CC[C@@H](c1cccc(O)c1)[C@@H](C)CN(C)C [TAPENTADOL]	No-Dili-Concern	0
Cc1nc(C)c2c(n1)N(Cc1ccc(-c3ccccc3-c3nnn[nH]3)cc1)C(=O)CC2 [TASOSARTAN]	Most-Dili-Concern	8
CCCCCNC(=N)N/N=C/c1c[nH]c2ccc(OC)cc12 [TEGASEROD]	Ambiguous-Dili-Concern	3
Cc1cn([C@@H]2C[C@@H](O)[C@H](CO)O2)c(=O)[nH]c1=O [TELBIVUDINE]	Ambiguous-Dili-Concern	2
CC[C@H]1OC(=O)[C@H](C)C(=O)[C@H](C)[C@@H](O[C@@H]2O[C@H](C)C[C@H](N(C)C)[C@H]2O)[C@](C)(OC)C[C@@H](C)C(=O)[C@H](C)[C@H]2N(CCCCn3cnc(-c4cccnc4)c3)C(=O)O[C@]12C [TELITHROMYCIN]	Most-Dili-Concern	8
CN1C(=O)C(O)N=C(c2ccccc2)c2cc(Cl)ccc21 (stereo unspecified) [TEMAZEPAM]	Ambiguous-Dili-Concern	3
Cn1nnc2c(C(N)=O)ncn2c1=O [TEMOZOLOMIDE]	Less-Dili-Concern	4
CO[C@H]1C[C@@H]2CC[C@@H](C)[C@@](O)(O2)C(=O)C(=O)N2CCCC[C@H]2C(=O)O[C@H]([C@H](C)C[C@@H]2CC[C@@H](OC(=O)C(C)(CO)CO)[C@H](OC)C2)CC(=O)[C@H](C)/C=C(\C)[C@@H](O)[C@@H](OC)C(=O)[C@H](C)C[C@H](C)/C=C/C=C/C=C/1C [TEMSIROLIMUS]	No-Dili-Concern	0
COc1cc([C@@H]2c3cc4c(cc3[C@@H](O[C@@H]3O[C@@H]5CO[C@@H](c6cccs6)O[C@H]5[C@H](O)[C@H]3O)[C@H]3COC(=O)[C@H]23)OCO4)cc(OC)c1O [TENIPOSIDE]	Less-Dili-Concern	3
C[C@H](Cn1cnc2c(N)ncnc21)OCP(=O)(O)O [TENOFOVIR ANHYDROUS]	Less-Dili-Concern	3
COc1cc2nc(N3CCN(C(=O)C4CCCO4)CC3)nc(N)c2cc1OC (stereo unspecified) [TERAZOSIN]	No-Dili-Concern	0
CN(C/C=C/C#CC(C)(C)C)Cc1cccc2ccccc12 [TERBINAFINE]	Most-Dili-Concern	8
CC(C)(C)NCC(O)c1cc(O)cc(O)c1 (stereo unspecified) [TERBUTALINE]	Less-Dili-Concern	3
CC[C@H](C)[C@H](NC(=O)[C@H](CCC(=O)O)NC(=O)[C@H](CO)NC(=O)[C@@H](NC(=O)[C@@H](N)CO)C(C)C)C(=O)N[C@@H](CCC(N)=O)C(=O)N[C@@H](CC(C)C)C(=O)N[C@@H](CCSC)C(=O)N[C@@H](Cc1cnc[nH]1)C(=O)N[C@@H](CC(N)=O)C(=O)N[C@@H](CC(C)C)C(=O)NCC(=O)N[C@@H](CCCCN)C(=O)N[C@@H](Cc1cnc[nH]1)C(=O)N[C@@H](CC(C)C)C(=O)N[C@@H](CC(N)=O)C(=O)N[C@@H](CO)C(=O)N[C@@H](CCSC)C(=O)N[C@@H](CCC(=O)O)C(=O)N[C@@H](CCCN=C(N)N)C(=O)N[C@H](C(=O)N[C@@H](CCC(=O)O)C(=O)N[C@@H](Cc1c[nH]c2ccccc12)C(=O)N[C@@H](CC(C)C)C(=O)N[C@@H](CCCN=C(N)N)C(=O)N[C@@H](CCCCN)C(=O)N[C@@H](CCCCN)C(=O)N[C@@H](CC(C)C)C(=O)N[C@@H](CCC(N)=O)C(=O)N[C@@H](CC(=O)O)C(=O)N[C@H](C(=O)N[C@@H](Cc1cnc[nH]1)C(=O)N[C@@H](CC(N)=O)C(=O)N[C@@H](Cc1ccccc1)C(=O)O)C(C)C)C(C)C [TERIPARATIDE]	No-Dili-Concern	0
